According to paper PMC4594923, “Food Polyphenols Fail to Cause a Biologically Relevant Reduction of COX-2 Activity” (PLoS ONE, 2015):
Marks after values point to notes of the source that are not given here.

Experiments:
[1] = test system: arachidonic acid (AA) cascade; experiment: liver tissue oxylipin/PG levels in LPS induced sepsis in mice; format: in vivo, C57BL/6N mice; details: liver tissue 24 h after LPS treatment;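 note: male C57BL/6N mice pretreated i.p. with polyphenols at 100 mg/kg bw or vehicle before LPS, liver oxylipins measured by LC-MS after solid-phase extraction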
[2] = test system: arachidonic acid (AA) cascade; experiment: plasma oxylipin/PG levels in LPS induced sepsis in mice; format: in vivo, C57BL/6N mice;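 note: male C57BL/6N mice given LPS, plasma oxylipins quantified by LC-MS after solid-phase extraction, pretreatment or vehicle given intraperitoneally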
[3] = mice, compound i. p. 100 mg/kg bw 2 h before LPS, 24 h after LPS, vs. LPS group
[4] = plasma 24 h after LPS treatment, LPS +, mean

`O=c1cc(-c2ccc(O)cc2)oc2cc(O)cc(O)c12` [Apigenin, apigenin] was tested, and the “4,5-DiHDPE concentration” value ([1]; mean) was 74 nM, the 4-HDHA concentration ([1]; mean) was 12 nM and the “5(6)-EpETrE concentration” value ([1]; mean) was 97 nM. The “5,6-DiHETE concentration” value ([1]; mean) was < 0.30 nM, the “5,6-DiHETrE concentration” value ([1]; mean) was 5.1 nM and the 5-HEPE concentration ([1]; mean) was 2.8 nM. The 5-HETE concentration ([1]; mean) was 2.8 nM, the 5-iPF2α concentration ([1]; mean) was 1.1 nM and the 5-oxo-ETE concentration ([1]; mean) was 15 nM. For the same compound, the 6-keto-PGF1α concentration ([1]; mean) was 32 nM, the “7,8-DiHDPE concentration” value ([1]; mean) was 5.2 nM and the 7-HDHA concentration ([1]; mean) was 3.2 nM. For the same compound, the “8(9)-EpETE concentration” value ([1]; mean) was 2.1 nM, the “8(9)-EpETrE concentration” value ([1]; mean) was 20 nM and the “8,9-DiHETE concentration” value ([1]; mean) was 2.3 nM. The “8,9-DiHETrE concentration” value ([1]; mean) was 10 nM, the “8,15-DiHETE concentration” value ([1]; mean) was < 0.80 nM and the 8-HDHA concentration ([1]; mean) was 20 nM. It also gave a 8-HEPE concentration ([1]; mean) of 0.98 nM, a 8-HETE concentration ([1]; mean) of 8.5 nM and a 8-iPF2α concentration ([1]; mean) of 2.1 nM. The “9(10)-EpODE concentration” value ([1]; mean) was 11 nM, the “9(10)-EpOME concentration” value ([1]; mean) was 120 nM and the “9(10)-Epoxystearic acid concentration” value ([1]; mean) was 86 nM. For the same compound, the “9,10,13-TriHOME concentration” value ([1]; mean) was 6.4^* nM, the “9,10-DiHODE concentration” value ([1]; mean) was 8.6 nM and the “9,10-DiHOME concentration” value ([1]; mean) was 69 nM. For the same compound, the “9,10-Dihydroxystearic acid concentration” value ([1]; mean) was 53 nM, the “9,12,13-TriHOME concentration” value ([1]; mean) was 41 nM and the 9-HETE concentration ([1]; mean) was 5.2 nM. The 9-HODE concentration ([1]; mean) was 370 nM, the 9-HOTrE concentration ([1]; mean) was 8.1 nM and the 9-oxo-ODE concentration ([1]; mean) was 120 nM. For the same compound, the “10(11)-EpDPE concentration” value ([1]; mean) was 30 nM, the “10,11-DiHDPE concentration” value ([1]; mean) was 9.8 nM and the 10-HDHA concentration ([1]; mean) was 5.7 nM. For the same compound, the “11(12)-EpETE concentration” value ([1]; mean) was 4.4 nM, the “11(12)-EpETrE concentration” value ([1]; mean) was 47 nM and the “11,12-DiHETE concentration” value ([1]; mean) was 2.9 nM. The “11,12-DiHETrE concentration” value ([1]; mean) was 18 nM, the 11-HDHA concentration ([1]; mean) was 5.5 nM and the 11-HETE concentration ([1]; mean) was 21 nM. The “12(13)-EpODE concentration” value ([1]; mean) was 5.0 nM, the “12(13)-EpOME concentration” value ([1]; mean) was 99 nM and the “12,13-DiHODE concentration” value ([1]; mean) was 5.7 nM. For the same compound, the “12,13-DiHOME concentration” value ([1]; mean) was 140^† nM, the 12-HEPE concentration ([1]; mean) was 27 nM and the 12-HETE concentration ([1]; mean) was 120 nM. The “13(14)-EpDPE concentration” value ([1]; mean) was 24 nM, the “13,14-DiHDPE concentration” value ([1]; mean) was 11 nM and the “13,14-dihydro-15-keto-PGE1 concentration” value ([1]; mean) was 0.57 nM. For the same compound, the “13,14-dihydro-15-keto-PGF2α concentration” value ([1]; mean) was 7.0 nM, the 13-HDHA concentration ([1]; mean) was 10 nM and the 13-HODE concentration ([1]; mean) was 370 nM. The 13-HOTrE concentration ([1]; mean) was 18 nM, the 13-oxo-ODE concentration ([1]; mean) was 16 nM and the “14(15)-EpETE concentration” value ([1]; mean) was 3.1 nM. For the same compound, the “14(15)-EpETrE concentration” value ([1]; mean) was 38 nM, the “14,15-DiHETE concentration” value ([1]; mean) was 7.4 nM and the “14,15-DiHETrE concentration” value ([1]; mean) was 43 nM. For the same compound, the 14-HDHA concentration ([1]; mean) was 68 nM, the “15(16)-EpODE concentration” value ([1]; mean) was 24 nM and the “15(S)-HETrE concentration” value ([1]; mean) was 9.0 nM. The “15,16-DiHODE concentration” value ([1]; mean) was 49 nM, the 15-HEPE concentration ([1]; mean) was 3.4 nM and the 15-HETE concentration ([1]; mean) was 31 nM. For the same compound, the 15-oxo-ETE concentration ([1]; mean) was 4.0 nM, the “16(17)-EpDPE concentration” value ([1]; mean) was 23 nM and the “16,17-DiHDPE concentration” value ([1]; mean) was 22 nM. For the same compound, the 16-HDHA concentration ([1]; mean) was 6.0 nM, the “17(18)-EpETE concentration” value ([1]; mean) was 4.2 nM and the “17,18-DiHETE concentration” value ([1]; mean) was 15 nM. The 17-HDHA concentration ([1]; mean) was 21 nM, the 18-HEPE concentration ([1]; mean) was 3.3 nM and the “19(20)-EpDPE concentration” value ([1]; mean) was 33 nM. For the same compound, the “19,20-DiHDPE concentration” value ([1]; mean) was 110 nM, the 20-HDHA concentration ([1]; mean) was 22 nM and the 20-HEPE concentration ([1]; mean) was 15 nM. It also gave a 20-HETE concentration ([1]; mean) of 7.2 nM, an EKODE concentration ([1]; mean) of 28 nM and a PGD1 concentration ([1]; mean) of 1.2 nM. The PGD2 concentration ([1]; mean) was 34 nM, the PGE1 concentration ([1]; mean) was 2.3 nM and the PGE2 concentration ([1]; mean) was 15 nM. For the same compound, the PGF1α concentration ([1]; mean) was 2.8 nM, the TXB2 concentration ([1]; mean) was 17 nM and the TxB3 concentration ([1]; mean) was 0.89 nM. The dihomo-PGF2α concentration ([1]; mean) was 3.6 nM, the PGF2α concentration ([1]; mean (first listing, r6)) was 26 nM and the PGF2α concentration ([1]; mean (second listing, r9)) was 26 nM. For the same compound, the “plasma epoxy- and dihydroxy-fatty acid (FA) metabolites of the CYP pathway” value [2, 3] was “reduced”, the “sum of DiHETrEs in plasma” value [2, 3] was “decrease” and the “sum of linoleic acid (LA) derived epoxy-metabolites in plasma” value [2, 3] was “decrease”. For the same compound, the “1a,1b-dihomo-PGF2α concentration in plasma” value [2, 4] was 0.27 nM, the “4,5-DiHDPE concentration in plasma” value [2, 4] was 7.8 nM and the “4-HDHA concentration in plasma” value [2, 4] was 1.3 nM. The “5(6)-EpETrE concentration in plasma” value [2, 4] was 6.8 nM, the “5,6-DiHETrE concentration in plasma” value [2, 4] was 0.62 nM and the “5-HEPE concentration in plasma” value [2, 4] was 0.27 nM. The “5-HETE concentration in plasma” value [2, 4] was 2.4 nM, the “5-iPF2α concentration in plasma” value [2, 4] was < 0.50 nM and the “5-oxo-ETE concentration in plasma” value [2, 4] was < 1.0 nM. The “6-keto-PGF1α concentration in plasma” value [2, 4] was 2.1 nM, the “7,8-DiHDPE concentration in plasma” value [2, 4] was 0.64 nM and the “7-HDHA concentration in plasma” value [2, 4] was 0.47 nM. The “8(9)-EpETrE concentration in plasma” value [2, 4] was 1.5 nM, the “8,9-DiHETrE concentration in plasma” value [2, 4] was 1.4 nM and the “8-HDHA concentration in plasma” value [2, 4] was 3.0 nM. For the same compound, the “8-HETE concentration in plasma” value [2, 4] was 3.1 nM, the “8-iPF2a concentration in plasma” value [2, 4] was 0.19 nM and the “9(10)-EpODE concentration in plasma” value [2, 4] was 2.2^* nM. For the same compound, the “9(10)-EpOME concentration in plasma” value [2, 4] was 24^* nM, the “9(10)-Epoxystearic acid concentration in plasma” value [2, 4] was 18 nM and the “9,10,13-TriHOME concentration in plasma” value [2, 4] was 3.3 nM. The “9,10-DiHODE concentration in plasma” value [2, 4] was 4.0 nM, the “9,10-DiHOME concentration in plasma” value [2, 4] was 34 nM and the “9,10-Dihydroxystearic acid concentration in plasma” value [2, 4] was 47^‡ nM. For the same compound, the “9,12,13-TriHOME concentration in plasma” value [2, 4] was 38 nM, the “9-HODE concentration in plasma” value [2, 4] was 83 nM and the “9-HOTrE concentration in plasma” value [2, 4] was 6.1 nM. The “9-oxo-ODE concentration in plasma” value [2, 4] was 16 nM, the “10(11)-EpDPE concentration in plasma” value [2, 4] was 1.7 nM and the “10,11-DiHDPE concentration in plasma” value [2, 4] was 0.58^* nM. The “10-HDHA concentration in plasma” value [2, 4] was 3.0 nM, the “11(12)-EpETrE concentration in plasma” value [2, 4] was 2.0 nM and the “11,12-DiHETE concentration in plasma” value [2, 4] was < 0.13 nM. The “11,12-DiHETrE concentration in plasma” value [2, 4] was 1.1^* nM, the “11-HDHA concentration in plasma” value [2, 4] was 0.67 nM and the “11-HETE concentration in plasma” value [2, 4] was 1.8 nM. For the same compound, the “12(13)-EpODE concentration in plasma” value [2, 4] was 1.8 nM, the “12(13)-EpOME concentration in plasma” value [2, 4] was 29^* nM and the “12,13-DiHODE concentration in plasma” value [2, 4] was 4.5 nM. The “12,13-DiHOME concentration in plasma” value [2, 4] was 114 nM, the “12-HEPE concentration in plasma” value [2, 4] was 25 nM and the “12-HETE concentration in plasma” value [2, 4] was 260 nM. For the same compound, the “13(14)-EpDPE concentration in plasma” value [2, 4] was 1.2 nM, the “13,14-DiHDPE concentration in plasma” value [2, 4] was 0.58^* nM and the “13,14-dihydro-15-keto-PGE1 concentration in plasma” value [2, 4] was 0.14 nM. The “13,14dihydro-15-keto-PGF2α concentration in plasma” value [2, 4] was 0.41 nM, the “13-HDHA concentration in plasma” value [2, 4] was 0.98 nM and the “13-HODE concentration in plasma” value [2, 4] was 110^* nM. For the same compound, the “13-HOTrE concentration in plasma” value [2, 4] was 5.7 nM, the “13-oxo-ODE concentration in plasma” value [2, 4] was 2.5 nM and the “14(15)-EpETE concentration in plasma” value [2, 4] was 0.14^† nM. The “14(15)-EpETrE concentration in plasma” value [2, 4] was 1.5^* nM, the “14,15-DiHETE concentration in plasma” value [2, 4] was 0.19^† nM and the “14,15-DiHETrE concentration in plasma” value [2, 4] was 2.2 nM. The “14-HDHA concentration in plasma” value [2, 4] was 71 nM, the “15(16)-EpODE concentration in plasma” value [2, 4] was 1.2 nM and the “15(S)-HETrE concentration in plasma” value [2, 4] was 0.94 nM. For the same compound, the “15,16-DiHODE concentration in plasma” value [2, 4] was 24 nM, the “15-HETE concentration in plasma” value [2, 4] was 2.5 nM and the “15-oxo-ETE concentration in plasma” value [2, 4] was 0.29 nM. For the same compound, the “16(17)-EpDPE concentration in plasma” value [2, 4] was 1.2 nM, the “16,17-DiHDPE concentration in plasma” value [2, 4] was 1.2^* nM and the “16-HDHA concentration in plasma” value [2, 4] was 1.0 nM. For the same compound, the “17(18)-EpETE concentration in plasma” value [2, 4] was 0.68^* nM, the “17,18-DiHETE concentration in plasma” value [2, 4] was 1.2^* nM and the “17-HDHA concentration in plasma” value [2, 4] was 5.2 nM. For the same compound, the “18-HEPE concentration in plasma” value [2, 4] was 0.26 nM, the “19(20)-EpDPE concentration in plasma” value [2, 4] was 9.4 nM and the “19,20-DiHDPE concentration in plasma” value [2, 4] was 11 nM. The “20-HDHA concentration in plasma” value [2, 4] was 2.2 nM, the “20-HEPE concentration in plasma” value [2, 4] was 1.7^* nM and the “20-HETE concentration in plasma” value [2, 4] was 1.6 nM. The “EKODE concentration in plasma” value [2, 4] was 7.0 nM, the “PGD2 concentration in plasma” value [2, 4] was < 0.50 nM and the “PGE2 concentration in plasma” value [2, 4] was 1.3 nM. For the same compound, the “PGF1α concentration in plasma” value [2, 4] was 0.10 nM, the “PGF2α concentration in plasma” value [2, 4] was 0.42 nM and the “TXB2 concentration in plasma” value [2, 4] was 1.1 nM.
